Source: US20070161697A1, “Hydrazide type compounds and the use thereof in pharmaceutical compositions for the treatment of cardiovascular diseases” (priority 2004, published 2007)

System: ApoE −/− mice
Test: Circulating triglycerides, ApoE −/− mice on regimen rich in cholesterol and fat
Type: in vivo
Conditions: 1 mg/kg; 3 months
Description: Firstly, mice devoid of the coding gene for Apo lipoprotein E (ApoE −/−) have been used. These mice represent a model of choice of studying early atherosclerosis and development of a plaque rich in foamy macrophages. Male C57BL/6J mice homozygote for deletion of the ApoE gene were subjected to a normal dietary regimen until the age of eight weeks. These mice (n=8 per group) subsequently received ad libitum and for 12 weeks either a dietary regimen not enriched with cholesterol or fat, or an enriched regimen, containing 1.5 g/kg of cholesterol and 200 g/kg of fat of milk origin. The untreated mice underwent daily intraperitoneal injections of a solution containing DMSO at 10%. The treated mice received by intraperitoneal injection the same solution containing 2 or 20 μg (i.e. 0.1 mg/kg/day or 1 mg/kg/day) of the compound CGP 02-01. […]
Assay of serum triglycerides may be performed enzymatically using the commercially available kit. […] The glycerol 3 phosphate is subsequently transformed into dihydroxyacetone in generating oxygenated water (H202) which may be detected by formation of quinoneimine in the presence of parachlorophenol, amino-4-antipyrin and peroxidase. The intensity of the quinoneimine coloration is subsequently measured at 505 nm. This coloration is proportional to the quantity of triglycerides present in the sample.

COc1cc(O)c(/C=N/NC(=O)c2cc3ccccc3s2)c(OC)c1 [CGP02-01, N′-[(1E)-(2-hydroxy-4,6-dimethoxyphenyl)methylene]-1-benzothiophene-2-carbohydrazide]
Variation of plasma triglyceride level, treated in relation to untreated mice: twice as great
